Test system: P. falciparum K1
Assay: Plasmodium falciparum in vitro assay ([3H] hypoxanthine incorporation)
Assay type: cell-based
Details: Plasmodium falciparum; erythrocytic stages, strain K1 resistant to chloroquine and pyrimethamine, human red cells; read-out: IC50 (nM) on K1
Description: In vitro antimalarial activity: Plasmodium falciparum in vitro assay In vitro activity against erythrocytic stages of P. falciparum is determined using a [^3H] hypoxanthine incorporation assay. One strain resistant to chloroquine and pyrimethamine (P. falciparum K1) is used in the assays, and all test compounds are compared for activity with the standard drugs chloroquine (sigma C6628) and artemisinin (sigma-36, 159-3). Compounds are diluted in DMSO to 1 mM and added to parasite cultures incubated in RPMI 1640 medium without hypoxanthine, supplemented with HEPES (5.94 g/L), NaHCO3 (2.1 g/L), neomycin (100 U/mL), Albumax (5 g/L) and washed human red cells at 2.5% hematocrit (0.3% parasitaemia). Seven serial doubling dilutions of each drug are prepared in 96-well microtitre plates and incubated in a humidifying atmosphere at 37° C.; 4% CO2, 3% O2, 93% N2.
After 48 h, 50 μl of [^3H] hypoxanthine (0.5 μCi) is added to each well of a plate. The plates are incubated for a further 24 h under the same conditions. The plates are then harvested with a Betaplate cell harvester (Wallac) and washed with distilled water. The dried filters are inserted into a plastic foil with 10 mL of scintillation fluid, and counted in a Betaplate liquid scintillation counter. IC50 values are calculated from sigmoidal inhibition curves using Microsoft Excel.

Structure (SMILES)	IC50 [nM]
O=C([C@H](Cc1ccccc1)N(Cc1ccc(-c2cnccn2)cc1)C(=O)C=Cc1ccc(Cl)nc1)N1CCc2ccccc2C1 [Example 111, (S)—N-[1-Benzyl-2-(3,4-dihydro-1H-isoquinolin-2-yl)-2-oxo-ethyl]-3-(6-chloro-pyridin-3-yl)-N-(4-pyrazin-2-yl-benzyl)-acrylamide]	35
COc1ncc(C=CC(=O)N(Cc2ccc(-c3cnccn3)cc2)[C@@H](Cc2ccccc2)C(=O)N2CCc3ccccc3C2)cn1 [Example 114, (S)—N-[1-Benzyl-2-(3,4-dihydro-1H-isoquinolin-2-yl)-2-oxo-ethyl]-3-(2-methoxy-pyrimidin-5-yl)-N-(4-pyrazin-2-yl-benzyl)-acrylamide]	63
Cn1cc(C=CC(=O)N(Cc2ccc(-c3cnccn3)cc2)[C@@H](Cc2ccccc2)C(=O)N2CCc3ccccc3C2)cn1 [Example 116, (S)—N-[1-Benzyl-2-(3,4-dihydro-1H-isoquinolin-2-yl)-2-oxo-ethyl]-3-(1-methyl-1H-pyrazol-4-yl)-N-(4-pyrazin-2-yl-benzyl)-acrylamide]	67
Cn1cc(C=CC(=O)N(Cc2ccc(-n3cncn3)cc2)[C@@H](Cc2ccccc2)C(=O)N2CCc3ccccc3C2)cn1 [Example 172, (S)—N-[1-Benzyl-2-(3,4-dihydro-1H-isoquinolin-2-yl)-2-oxo-ethyl]-3-(1-methyl-1H-pyrazol-4-yl)-N-(4-[1,2,4]-triazol-1-yl-benzyl)-acrylamide]	25
Cc1ncsc1C=CC(=O)N(Cc1ccc(-n2cncn2)cc1)[C@@H](Cc1ccccc1)C(=O)N1CCc2ccccc2C1 [Example 178, (S)—N-[1-Benzyl-2-(3,4-dihydro-1H-isoquinolin-2-yl)-2-oxo-ethyl]-3-(4-methyl-thiazol-5-yl)-N-(4-[1,2,4]-triazol-1-yl-benzyl)-acrylamide]	28
CN1CCN(c2ccc(CN(C(=O)C=Cc3ccc(C(F)(F)F)cn3)[C@@H](Cc3ccccc3)C(=O)N3CCc4ccccc4C3)cc2)CC1 [Example 211, (S)—N-[1-Benzyl-2-(3,4-dihydro-1H-isoquinolin-2-yl)-2-oxo-ethyl]-N-[4-(4-methyl-piperazin-1-yl)-benzyl]-3-(5-trifluoromethyl-pyridin-2-yl)-acrylamide]	82
Cc1ccc(C=CC(=O)N(Cc2ccc(N3CCOCC3)cc2)[C@@H](Cc2ccccc2)C(=O)N2CCc3ccccc3C2)cn1 [Example 218, (S)—N-[1-Benzyl-2-(3,4-dihydro-1H-isoquinolin-2-yl)-2-oxo-ethyl]-3-(6-methyl-pyridin-3-yl)-N-(4-morpholin-4-yl-benzyl)-acrylamide]	31
Cc1noc(C)c1C=CC(=O)N(Cc1ccc(N2CCOCC2)cc1)[C@@H](Cc1ccccc1)C(=O)N1CCc2ccccc2C1 [Example 224, (S)—N-[1-Benzyl-2-(3,4-dihydro-1H-isoquinolin-2-yl)-2-oxo-ethyl]-3-(3,5-dimethyl-isoxazol-4-yl)-N-(4-morpholin-4-yl-benzyl)-acrylamide]	18
Cc1noc(C)c1C=CC(=O)N(Cc1ccc(-c2cncnc2)cc1)[C@@H](Cc1ccccc1)C(=O)N1CCc2ccccc2C1 [Example 235, (S)—N-[1-Benzyl-2-(3,4-dihydro-1H-isoquinolin-2-yl)-2-oxo-ethyl]-3-(3,5-dimethyl-isoxazol-4-yl)-N-(4-pyrimidin-5-yl-benzyl)-acrylamide]	26
Cc1ncc(C=CC(=O)N(Cc2ccc(-c3ccncc3)cc2)[C@@H](Cc2ccccc2)C(=O)N2CCc3ccccc3C2)n1C [Example 246, (S)—N-[1-Benzyl-2-(3,4-dihydro-1H-isoquinolin-2-yl)-2-oxo-ethyl]-3-(2,3-dimethyl-3H-imidazol-4-yl)-N-(4-pyridin-4-yl-benzyl)-acrylamide]	17
Cc1nc(C)c(C=CC(=O)N(Cc2ccc(N3CCOCC3)cc2)[C@@H](Cc2ccccc2)C(=O)N2CCc3ccccc3C2)s1 [Example 251, (S)—N-[1-Benzyl-2-(3,4-dihydro-1H-isoquinolin-2-yl)-2-oxo-ethyl]-3-(2,4-dimethyl-thiazol-5-yl)-N-(4-morpholin-4-yl-benzyl)-acrylamide]	42
Cc1nc(C=CC(=O)N(Cc2ccc(-c3cncnc3)cc2)[C@@H](Cc2ccccc2)C(=O)N2CCc3ccccc3C2)c(C)o1 [Example 253, (S)—N-[1-Benzyl-2-(3,4-dihydro-1H-isoquinolin-2-yl)-2-oxo-ethyl]-3-(2,5-dimethyl-oxazol-4-yl)-N-(4-pyrimidin-5-yl-benzyl)-acrylamide]	70

Now from value to compound:

IC50 [nM]	Structure (SMILES)
5	Cc1nn(C)c(C)c1C=CC(=O)N(Cc1ccc(-c2cnccn2)cc1)[C@@H](Cc1ccccc1)C(=O)N1CCc2ccccc2C1 [Example 119, (S)—N-[1-Benzyl-2-(3,4-dihydro-1H-isoquinolin-2-yl)-2-oxo-ethyl]-N-(4-pyrazin-2-yl-benzyl)-3-(1,3,5-trimethyl-1H-pyrazol-4-yl)-acrylamide]
13	Cc1nc(C)c(C=CC(=O)N(Cc2ccc(-c3cccnn3)cc2)[C@@H](Cc2ccccc2)C(=O)N2CCc3ccccc3C2)s1 [Example 145, (S)—N-[1-Benzyl-2-(3,4-dihydro-1H-isoquinolin-2-yl)-2-oxo-ethyl]-3-(2,4-dimethyl-thiazol-5-yl)-N-(4-pyridazin-3-yl-benzyl)-acrylamide]
2	Cc1nn(C)c(C)c1C=CC(=O)N(Cc1ccc(-n2ccnn2)cc1)[C@@H](Cc1ccccc1)C(=O)N1CCc2ccccc2C1 [Example 157, (S)—N-[1-Benzyl-2-(3,4-dihydro-1H-isoquinolin-2-yl)-2-oxo-ethyl]-N-(4-[1,2,3]-triazol-1-yl-benzyl)-3-(1,3,5-trimethyl-1H-pyrazol-4-yl)-acrylamide]
8	O=C([C@H](Cc1ccccc1)N(Cc1ccc(-n2cncn2)cc1)C(=O)C=Cc1ccc(Cl)nc1)N1CCc2ccccc2C1 [Example 167, (S)—N-[1-Benzyl-2-(3,4-dihydro-1H-isoquinolin-2-yl)-2-oxo-ethyl]-3-(6-chloro-pyridin-3-yl)-N-(4-[1,2,4]-triazol-1-yl-benzyl)-acrylamide]
4	O=C([C@H](Cc1ccccc1)N(Cc1ccc(-c2nccs2)cc1)C(=O)C=Cc1ccc(C(F)(F)F)cc1)N1CCc2ccccc2C1 [Example 199, (S)—N-[1-Benzyl-2-(3,4-dihydro-1H-isoquinolin-2-yl)-2-oxo-ethyl]-N-(4-thiazol-2-yl-benzyl)-3-(4-trifluoromethyl-phenyl)-acrylamide]
10	COc1ccc(C=CC(=O)N(Cc2ccc(N3CCOCC3)cc2)[C@@H](Cc2ccccc2)C(=O)N2CCc3ccccc3C2)cn1 [Example 220, (S)—N-[1-Benzyl-2-(3,4-dihydro-1H-isoquinolin-2-yl)-2-oxo-ethyl]-3-(6-methoxy-pyridin-3-yl)-N-(4-morpholin-4-yl-benzyl)-acrylamide]
8.5	O=C([C@H](Cc1ccccc1)N(Cc1ccc(-c2cncnc2)cc1)C(=O)C=Cc1ccc(Cl)nc1)N1CCc2ccccc2C1 [Example 228, (S)—N-[1-Benzyl-2-(3,4-dihydro-1H-isoquinolin-2-yl)-2-oxo-ethyl]-3-(6-chloro-pyridin-3-yl)-N-(4-pyrimidin-5-yl-benzyl)-acrylamide]
9	COc1ccc(C=CC(=O)N(Cc2ccc(-c3ccncc3)cc2)[C@@H](Cc2ccccc2)C(=O)N2CCc3ccccc3C2)nn1 [Example 239, (S)—N-[1-Benzyl-2-(3,4-dihydro-1H-isoquinolin-2-yl)-2-oxo-ethyl]-3-(6-methoxy-pyridazin-3-yl)-N-(4-pyridin-4-yl-benzyl)-acrylamide]
5	Cc1noc(C)c1C=CC(=O)N(Cc1ccc(-c2ccncc2)cc1)[C@@H](Cc1ccccc1)C(=O)N1CCc2ccccc2C1 [Example 241, (S)—N-[1-Benzyl-2-(3,4-dihydro-1H-isoquinolin-2-yl)-2-oxo-ethyl]-3-(3,5-dimethyl-isoxazol-4-yl)-N-(4-pyridin-4-yl-benzyl)-acrylamide]
< 7.8	Cn1ccc(C=CC(=O)N(Cc2ccc(-c3ccncc3)cc2)[C@@H](Cc2ccccc2)C(=O)N2CCc3ccccc3C2)n1 [Example 243, (S)—N-[1-Benzyl-2-(3,4-dihydro-1H-isoquinolin-2-yl)-2-oxo-ethyl]-3-(1-methyl-1H-pyrazol-3-yl)-N-(4-pyridin-4-yl-benzyl)-acrylamide]
4	Cc1nc(C)c(C=CC(=O)N(Cc2ccc(-c3ccncc3)cc2)[C@@H](Cc2ccccc2)C(=O)N2CCc3ccccc3C2)s1 [Example 247, (S)—N-[1-Benzyl-2-(3,4-dihydro-1H-isoquinolin-2-yl)-2-oxo-ethyl]-3-(2,4-dimethyl-thiazol-5-yl)-N-(4-pyridin-4-yl-benzyl)-acrylamide]
2	Cc1c(C=CC(=O)N(Cc2ccc(-c3ccncc3)cc2)[C@@H](Cc2ccccc2)C(=O)N2CCc3ccccc3C2)cnn1C [Example 250, (S)—N-[1-Benzyl-2-(3,4-dihydro-1H-isoquinolin-2-yl)-2-oxo-ethyl]-3-(1,5-dimethyl-1H-pyrazol-4-yl)-N-(4-pyridin-4-yl-benzyl)-acrylamide]

Same assay, conditions: erythrocytic stages, strain K1 resistant to chloroquine and pyrimethamine, human red cells; read-out: IC50 (nM) on K1

Structure (SMILES)	IC50 [nM]
O=C([C@H](Cc1ccccc1)N(Cc1ccc(-c2cc[n+]([O-])cc2)cc1)C(=O)C=Cc1ccc(C(F)(F)F)cc1)N1CCc2ccccc2C1 [Example 254, (S)—N-[1-Benzyl-2-(3,4-dihydro-1-H-isoquinolin-2-yl)-2-oxo-ethyl]-N-[4-(1-oxy-pyridin-4-yl)-benzyl]-3-(4-trifluoromethyl-phenyl)-acrylamide]	< 7.8

From patent US20110281869A1, “TETRAHYDROISOQUINOLINES AS ANTIMALARIAL AGENTS” (priority 2008, published 2011)
